“Also recorded” adds a separate entry of the source.
What was measured:
DAGLA = target: T1, DAGLA (Mus musculus, UniProt Q6WQJ1); experiment: Activity against recombinant DAGLA; assay type: biochemical
T1 construct: Full-length cDNAs encoding serine hydrolases were purchased from Open Biosystems; V5; host or cells: HEK293T

[1] = tested on: serine hydrolases in mouse brain proteome; experiment: Selectivity profile by competitive ABPP (mouse brain proteome), DAGL series; assay type: biochemical
endogenous DAGLB = target: T2, endogenous DAGLB (Mus musculus, UniProt Q91WC9); experiment: HT01 labeling of endogenous DAGLB in mouse brain and peritoneal macrophage proteomes; assay type: biochemical; details: 2 μM pretreatment
T2 construct: from tissue; host or cells: mouse brain and peritoneal macrophages

peritoneal macrophages = experiment: Metabolomics of thioglycolate-elicited peritoneal macrophages from treated mice; assay type: in vivo, mouse; details: 5 mg/kg, 4 hours, i.p.
Procedure: Mice were treated with KT109, KT172 or KT195 (5 mg/kg, 4 hours, i.p.) to evaluate whether blockade of DAGLB in peritoneal macrophages would result in metabolic effects similar to those observed in Neuro2A cells. Thioglycolate-elicited peritoneal macrophages were harvested, and the cells were subjected to metabolomics studies. […] All the metabolic effects observed in pharmacological studies were recapitulated using Daglb^−/− mice, providing genetic evidence that the changes were indeed DAGLB-mediated.
Metabolites were quantified by either selected reaction monitoring (SRM) of each metabolite using an Agilent G6410B Triple-Quad instrument or untargeted metabolomic analysis (substrate assays) using an Agilent 1100 series LC-MSD SL instrument. […] For analysis of diacylglycerols (DAGs) a Luna C5 column (50 mm×4.60 mm with 5 μm diameter particles) from Phenomenex was used. Mobile phase A was made of 95:5 v/v H2O:MeOH, and mobile phase B was composed of 60:35:5 v/v/v i-PrOH:MeOH:H2O. Ammonium hydroxide (0.1%) and formic acid (0.1%) was included to assist in ion formation in negative and positive ionization modes, respectively. For analysis of DAGs, 5 mM ammonium formate was also used in addition to 0.1% formic acid to assist in positive ionization and NH4+ adduct formation. For metabolite measurements, cells were resuspended in 1 mL of a 1% NaCl solution and added to 3 mL of a 2:1 v/v CHCl3:MeOH doped with 1 nmol of the following internal standards: d5-2-arachidonoylglycerol (2-AG), d8-arachidonic acid (AA), and d8-1-stearoyl-2-arachidonoylglycerol (SAG). The mixture was vortexed and then centrifuged (1,400×g, 3 min). The organic layer was removed, CHCl3 was added until the final volume was again 4 ml, and the extraction was repeated. The combined organic extracts were dried under a stream of N2 and resolubilized in 2:1 v/v CHCl3:MeOH (120 μl). 30 μL of resolubilized lipids were injected for positive mode (MAGs and DAGs) and negative mode (free fatty acids and eicosanoids) measurements.
The following parameters (MS) were used to measure the indicated metabolites by SRM (precursor ion, product ion, collision energy in V, polarity): C20:4 MAG or 2-AG (379, 287, 8, positive), d5-2-AG (384, 287, 5, positive), C18:0/C20:4 DAG or SAG (662, 341, 15, positive), d8-SAG (671, 671, 0, positive), C18:1/C20:4 DAG (660, 341, 15, positive), C16:0/C20:4 DAG (634, 341, 15, positive), C14:0/C20:4 DAG (606, 341, 15, positive), arachidonic acid or AA (303, 303, 0, negative), d8-AA (311, 267, 5, negative), PGE2 (351, 271, 10, negative), and PGD2 (351, 271, 10, negative). MS analysis was performed with an electrospray ionization source with the following parameters: drying gas temperature=350° C., drying gas flow rate=11 L/min, and the nebulizer pressure=35 psi. Prostaglandin SRM parameters were based on previously reported methods and transitions. Metabolites targeted by SRM were quantified by measuring the area under the peak in comparison with the internal standards. For metabolites where isotopic internal standards were not used, external standard curves with the internal standard versus metabolite standard were generated. In DAGL substrate assays, formation of the hydrolysis product, 2-AG was followed by measuring the area under the peak for 2-AG in comparison to the 1-monopentadecanoin standard ion.

DAGLB [2] = target: T3, DAGLB (Mus musculus, UniProt Q91WC9); experiment: ABPP-SILAC in Neuro2A cells; details: about 4 hours; 25 nM KT172, 50 nM KT109
T3 sequence (Q91WC9 1-669): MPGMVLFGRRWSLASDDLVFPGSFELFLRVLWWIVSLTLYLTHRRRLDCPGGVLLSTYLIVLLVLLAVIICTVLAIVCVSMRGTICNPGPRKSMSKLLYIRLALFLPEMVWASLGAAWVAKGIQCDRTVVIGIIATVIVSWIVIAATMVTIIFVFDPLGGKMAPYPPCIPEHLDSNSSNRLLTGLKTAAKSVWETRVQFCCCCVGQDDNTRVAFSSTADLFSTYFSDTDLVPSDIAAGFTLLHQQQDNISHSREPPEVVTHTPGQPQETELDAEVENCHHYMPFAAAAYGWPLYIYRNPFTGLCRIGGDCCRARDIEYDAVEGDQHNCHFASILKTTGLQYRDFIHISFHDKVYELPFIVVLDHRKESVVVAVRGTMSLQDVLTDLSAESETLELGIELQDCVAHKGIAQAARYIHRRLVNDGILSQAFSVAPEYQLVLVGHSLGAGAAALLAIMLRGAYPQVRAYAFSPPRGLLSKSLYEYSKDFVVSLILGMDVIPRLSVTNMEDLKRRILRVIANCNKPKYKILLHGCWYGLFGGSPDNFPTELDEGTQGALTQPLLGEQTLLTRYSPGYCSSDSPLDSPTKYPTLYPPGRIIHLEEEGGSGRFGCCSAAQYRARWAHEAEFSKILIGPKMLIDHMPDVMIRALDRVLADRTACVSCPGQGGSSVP

DAGLB [3] = target: T3, DAGLB; experiment: ABPP-MudPIT of peritoneal macrophages from treated mice; details: in vivo
[4] = tested on: serine hydrolases in the peritoneal macrophage proteome; experiment: ABPP-MudPIT of peritoneal macrophages from treated mice, off-targets; details: mouse, in vivo
DAGLB [5] = target: T3, DAGLB; experiment: In situ inhibition in Neuro2A cells, competitive ABPP with HT-01; assay type: cell-based; set-up: from tissue; host or cells: thioglycolate-elicited peritoneal macrophages of treated mice; details: 4 hours
Procedure: For gel-based competitive ABPP studies, proteomes from cells treated in situ with inhibitor for 4 h at 37° C. at the indicated concentrations (n=3) were labeled with HT-01 (1 μM) for 30 min at 37° C. After quenching, SDS-PAGE, and in-gel visualization, the percentage of enzyme activity remaining was determined by measuring the integrated optical intensity of the bands using IMAGER® software. For LC-MS substrate assays, the percentage of enzyme activity remaining was determined by comparing the specific activity (amount of 2-AG formed per min per mg of proteome) of inhibitor with DMSO-treated samples. The IC50 values were determined from a dose-response curve generated using GraphPad PRISM® software.

DAGLB [6] = target: T3, DAGLB; experiment: In vivo DAGLB inactivation in peritoneal macrophages, gel-based competitive ABPP using HT01; set-up: from tissue; host or cells: thioglycolate-elicited peritoneal macrophages of treated mice; details: i.p.
DAGLB [7] = target: T3, DAGLB; experiment: Gel-based ABPP assay against recombinant DAGLB (HEK293T-DAGLB lysates); assay type: biochemical; set-up: Full-length cDNAs encoding serine hydrolases were purchased from Open Biosystems; V5; host or cells: HEK293T; details: recombinant

T1 sequence (Q6WQJ1 whole entry): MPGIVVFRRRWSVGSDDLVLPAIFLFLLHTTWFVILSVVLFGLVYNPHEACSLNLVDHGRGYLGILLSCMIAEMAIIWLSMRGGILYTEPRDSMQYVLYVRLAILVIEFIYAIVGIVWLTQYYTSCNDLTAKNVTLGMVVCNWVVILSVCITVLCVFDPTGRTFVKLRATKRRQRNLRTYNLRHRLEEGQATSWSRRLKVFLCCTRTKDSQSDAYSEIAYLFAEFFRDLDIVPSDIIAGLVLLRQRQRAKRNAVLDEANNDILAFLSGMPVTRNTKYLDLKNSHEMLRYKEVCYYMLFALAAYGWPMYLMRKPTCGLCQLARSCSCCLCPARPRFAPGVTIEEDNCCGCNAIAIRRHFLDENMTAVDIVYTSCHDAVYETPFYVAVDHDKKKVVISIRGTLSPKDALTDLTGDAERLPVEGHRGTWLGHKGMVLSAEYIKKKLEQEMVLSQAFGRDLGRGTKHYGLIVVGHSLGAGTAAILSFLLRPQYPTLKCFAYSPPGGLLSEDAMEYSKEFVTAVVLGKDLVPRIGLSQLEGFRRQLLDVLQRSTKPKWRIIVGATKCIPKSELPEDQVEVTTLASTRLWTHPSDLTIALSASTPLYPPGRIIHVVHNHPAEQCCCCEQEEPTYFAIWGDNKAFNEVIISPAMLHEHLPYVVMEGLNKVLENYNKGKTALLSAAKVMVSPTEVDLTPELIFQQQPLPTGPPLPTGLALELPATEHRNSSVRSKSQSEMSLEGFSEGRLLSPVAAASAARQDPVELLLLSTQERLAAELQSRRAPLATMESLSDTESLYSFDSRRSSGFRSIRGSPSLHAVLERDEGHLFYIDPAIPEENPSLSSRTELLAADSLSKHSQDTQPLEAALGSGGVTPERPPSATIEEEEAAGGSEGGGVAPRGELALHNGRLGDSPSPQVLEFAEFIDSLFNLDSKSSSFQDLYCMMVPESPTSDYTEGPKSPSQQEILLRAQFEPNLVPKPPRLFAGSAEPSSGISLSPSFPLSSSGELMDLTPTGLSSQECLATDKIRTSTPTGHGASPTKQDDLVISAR

COc1ccccc1-c1ccc(-c2cn(C(=O)N3CCCCC3Cc3ccccc3)nn2)cc1 (centres unmarked) [KT172]
activity against DAGLA (DAGLA): more potent against the alpha isoform in comparison with KT109
off-target activity / selectivity against other serine hydrolases [1]: mild activity against this off-target enzyme at higher concentrations; also recorded: slightly increased activity against MGLL
reduction of HT01 probe labeling of the DAGLB band (endogenous DAGLB): > 80%
change in 2-AG (peritoneal macrophages): Dramatic decreases in 2-AG
change in SAG (peritoneal macrophages): significant increases in SAG
change in cellular AA, PGE2 and PGD2 (peritoneal macrophages): significant decreases in cellular AA levels and a corresponding reduction in PGE2 and PGD2
DAGLB activity blocked (DAGLB [2]): approximately 90%
DAGLB inhibition by spectral counting (DAGLB [3]): confirmed inhibition of DAGLB
off-target activities [4]: carboxylesterases (Ces3 and Ces2g)
IC50 (DAGLB [5]): 11 nM
time to complete inhibition of DAGLB (DAGLB [6]; 5 mg/kg): within the first hour
duration / time-course of DAGLB inhibition (DAGLB [6]; 5 mg/kg, about 1 to 16 hours): shorter compared with KT109
dose (as low as) giving complete inactivation of DAGLB in peritoneal macrophages (DAGLB [6]; about 4 hours, doses about 10 to about 0.1 mg/kg): 0.5 mg/kg
activity against DAGLB (DAGLB [7]): maintaining potency against DAGLB

Source: US9108930B2, “N1- and N2-carbamoyl-1,2,3-triazole serine hydrolase inhibitors and methods” (The Scripps Research Institute, priority 2011, dated 2015)
